Where two headings read alike, the source gives them in different places.
Experiments:
[1] = PK experiment of cynomolgus monkeys; assay type: in vivo; conditions: cynomolgus monkey, plasma; for half-life / AUC(0-t) / Cmax: single dose; for half-life: male cynomolgus monkeys, read-out: Half-life period (T1/2) (converted); for AUC(0-t): read-out: Area under the curve AUC(0-t) in the case of administration; for Cmax: read-out: Peak concentration Cmax
Description: The purpose of this experiment was to evaluate the pharmacokinetic behavior of the compound to be tested after single intravenous and intragastric administration, and to study the bioavailability after intragastric administration, providing animal experimental data for clinical studies.
Preparation of solutions for intravenous injection and intragastric administration: an appropriate amount of compound to be tested was accurately weighed, and mixed with a suitable solvent (5 vol % DMSO+10 vol % polyethylene glycol−15-hydroxystearate+85 vol % normal saline). After vortex, or ultrasound processing, a clear and transparent solution (the solution for intravenous injection administration), or a uniform suspension was obtained. The solution administrated by intravenous injection needed to be filtered through a 0.22 μm filter membrane
Experimental design: before the first dose the cynomolgus monkeys were divided into 2 groups by body weight with 3 male cynomolgus monkeys in each group, where animals in group 1 were given the compound to be tested (1 mg/kg) by single intravenous injection (IV); and animals in the 2rd group were administrated with the compound to be tested (5 mg/kg) by single intragastric administration (PO). The animals were weighed before administration, and dosages were calculated based on the weights of the animals.
Sample collection: a whole blood sample (about 0.2 mL) was collected at a specified time by venipuncture of an upper limb (or other suitable blood collection sites), and the actual blood collection time was recorded in test records. The acceptable error for one acquisition time point within 1 hour after administration is ±1 minute, and the acceptable error for other time points is ±5% of the theoretical time. All blood samples were immediately transferred to a labeled commercial centrifuge tube containing K2-EDTA. After blood sample collection, the blood sample was centrifuged at 4° C. and 3,200 g for 10 minutes, the supernatant plasma was sucked, quickly put in dry ice, and kept in a refrigerator at −70±10° C. for LC-MS/MS analysis. The collection time of both groups was 0.083 hour, 0.25 hour, 0.5 hour, 1 hour, 2 hours, 4 hours, 8 hours and 24 hours after administration.
Data processing: Area under the curve (AUC(0-t) and AUC(0-∞)), elimination half-life (T½), peak concentration (Cmax), time to reach maximum plasma concentration (Tmax), etc., were calculated by the non-compartment analysis module in Phoenix WinNonlin 7.0.

primary hepatocyte = test: Hepatotoxicity detection in vitro (CellTiter-Glo); assay type: cell-based, human; conditions: primary hepatocytes
Experimental: Information of Primary Hepatocyte
Step 1: a test substance was prepared into a 200 mM DMSO stock solution, and then subjected to 3-times gradient continuous dilution by 7 concentrations, then 1.5 μL of each of the solutions of the 8 concentrations was added into 498.5 μL of incubation culture medium (with a composition referring to Table 5, directly mixed evenly) to prepare a working solution, and the incubation culture medium was preheated at 37° C. before preparation. DMSO was used as a solvent control. DMSO contents in the working solution and the solvent control were both 0.3 vol %. Concentrations of compounds were as follows:
Step 2: Plate Inoculation and Cell Culture
Second Step: Plate Inoculation and Culture of Cells
1) A tube of hepatocytes of the donor used in the experiment preserved at ultra-low temperature was taken, and the hepatocytes were ensured to be still frozen at low temperature before resuscitation. The hepatocytes were quickly placed in a water bath at 37° C. and gently shaken until all ice crystals were dispersed, and were transferred to a biosafety cabinet after spraying 70 vol % ethanol.
2) Contents of hepatocyte tubules were poured into a 50 mL centrifuge tube containing 50 mL of resuscitation culture medium (with a composition referring to Table 3, directly mixed evenly), and centrifuged at 80 g for 8 minutes. After centrifugation, the resuscitation culture medium was sucked out and an inoculation culture medium was added (with a composition referring to Table 4, directly mixed evenly). The cells were counted by AO/PI staining to obtain a cell suspension with a cell density of 0.2×10^6 cells per milliliter.
3) The cell suspension above was inoculated into a 96-well plate coated with collagen I, with 100 μL per well. The culture plate was placed in a 5% CO2 incubator with 95% relative humidity to culture for 4 hours to 6 hours.
4) After incubation for 4 hours to 6 hours, the state of the cells was observed under microscope. The culture plate was shaken gently, the inoculation culture medium was sucked out, and 100 μL of incubation culture medium was added into each well (with a composition referring to Table 5). A toxicity test could be carried out after culturing in the incubator for 18 hours to 20 hours.
5) Before administration, the morphology of the cells was observed under microscope. The culture medium in the culture plate was sucked out, and 100 μL of solvent control (DMSO), or test substance working solution was added into each well. Three parallel samples were tested under each condition.
6) The newly prepared working solution or solvent control was used for solution exchange every 24 hours after dosing.
After the working solution acted for 48 hours, the morphology of the cells was observed under microscope for later use.
Step 3: Cytotoxicity Detection
1) A CellTiter-Glo (Promega, article number G9243) reagent stored at −20° C. was melted in a water bath at 37° C.
2) After the cell culture plate obtained above was incubated for 48 hours, 50 μL of CellTiter-Glo solution was directly added into each experimental well.
3) The cell culture plate was vortexed at 400 rpm for 10 minutes, and incubated at room temperature to stabilize a luminescence signal.
After 10 minutes 100 μL of reaction solution was sucked from each well and transferred to a new white nontransparent-bottom flat plate (Corning 96-well plate Cat No. 3917). The
chemiluminescence value of each well was read by a microplate reader (a luminescence value of the white nontransparent-bottom flat plate was recorded as “a luminescence valueblank”; and a luminescence value of the solvent control was recorded as “a luminescence valuesolvent”).
Cell viability(%)=[(luminescence valueto-be-tested compound−luminescence valueblank)/(luminescence valuesolvent−luminescence valueblank)]×100% […]

- half-life ([1]; IV, 1 mg/kg): 9 h
- half-life ([1]; PO, 5 mg/kg): 16.7 h
- bioavailability ([1]; male, PO 5 mg/kg vs IV 1 mg/kg, read-out: Bioavailability (F)): 73%
- AUC(0-t) ([1]; male, IV, 1 mg/kg): 48.8 µg·h/mL
- Cmax ([1]; male, IV, 1 mg/kg): 20700 ng/mL
- AUC(0-t) ([1]; male, PO, 5 mg/kg): 178 µg·h/mL
- Cmax ([1]; male, PO, 5 mg/kg): 18300 ng/mL
SMILES: CC(C)c1nc(Oc2c(Cl)cc(-n3ncc(=O)[nH]c3=O)cc2Cl)ncc1O [KH06]
- IC50 (primary hepatocyte; Homo sapiens, Hepatocyte, cell viability after 48 hours): 207 µM
- Cell activity at the highest concentration (%) (primary hepatocyte; 48 hours, highest working solution concentration 600 μM): 4.50%

Source: US20230257367A1, “NOVEL THYROID HORMONE BETA RECEPTOR AGONIST” (Chengdu Kanghong Pharmaceutical Co., Ltd., priority 2020, published 2023)
